From patent US20170190705A1, “Compositions and Methods for Inhibiting BMP” (THE BRIGHAM AND WOMAN'S HOSPITAL, INC., priority 2014, published 2017)

Tests used:
Format in all cases: biochemical
[1] = target: PAK1 (Homo sapiens, UniProt Q13153); assay: Kinome profiling PAK1; details: read-out: Inhibitory activity PAK1; for inhibition at 0.1 µM: 100 nM
Method: (§1) . The kinome-wide selectivity was determined following the methods previously reported by Mohedas et al., ACS Chem Biol 2013, 8, 1291-1302 and Sanvitale et al., PLoS One 2013, 8, e62721.

[2] = target: T1, ZAP70 (Homo sapiens, UniProt P43403); assay: Kinome profiling ZAP70; details: read-out: Inhibitory activity ZAP70; for inhibition at 0.1 µM: 100 nM
T1 sequence (P43403 1-619): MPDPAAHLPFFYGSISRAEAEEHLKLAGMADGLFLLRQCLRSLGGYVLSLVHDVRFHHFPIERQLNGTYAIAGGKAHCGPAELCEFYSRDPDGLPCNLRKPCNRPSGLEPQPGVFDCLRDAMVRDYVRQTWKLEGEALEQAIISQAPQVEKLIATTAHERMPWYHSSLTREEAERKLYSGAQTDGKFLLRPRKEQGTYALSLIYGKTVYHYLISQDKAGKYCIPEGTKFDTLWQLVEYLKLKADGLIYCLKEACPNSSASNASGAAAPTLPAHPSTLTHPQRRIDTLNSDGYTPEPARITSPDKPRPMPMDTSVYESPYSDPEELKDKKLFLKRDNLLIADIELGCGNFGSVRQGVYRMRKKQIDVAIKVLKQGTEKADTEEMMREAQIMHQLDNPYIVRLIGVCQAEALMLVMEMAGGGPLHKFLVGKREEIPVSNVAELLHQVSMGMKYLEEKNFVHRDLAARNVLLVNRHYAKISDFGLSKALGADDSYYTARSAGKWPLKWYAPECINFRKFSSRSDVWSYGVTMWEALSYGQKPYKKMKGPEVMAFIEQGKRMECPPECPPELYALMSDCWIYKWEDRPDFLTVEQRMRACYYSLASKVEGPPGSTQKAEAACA
Method: as §1

[3] = target: LYNA (Homo sapiens, UniProt P07948); assay: Kinome profiling LYNA; details: read-out: Inhibitory activity LYNA; for inhibition at 0.1 µM: 100 nM
LYNA, sequence (P07948 whole entry): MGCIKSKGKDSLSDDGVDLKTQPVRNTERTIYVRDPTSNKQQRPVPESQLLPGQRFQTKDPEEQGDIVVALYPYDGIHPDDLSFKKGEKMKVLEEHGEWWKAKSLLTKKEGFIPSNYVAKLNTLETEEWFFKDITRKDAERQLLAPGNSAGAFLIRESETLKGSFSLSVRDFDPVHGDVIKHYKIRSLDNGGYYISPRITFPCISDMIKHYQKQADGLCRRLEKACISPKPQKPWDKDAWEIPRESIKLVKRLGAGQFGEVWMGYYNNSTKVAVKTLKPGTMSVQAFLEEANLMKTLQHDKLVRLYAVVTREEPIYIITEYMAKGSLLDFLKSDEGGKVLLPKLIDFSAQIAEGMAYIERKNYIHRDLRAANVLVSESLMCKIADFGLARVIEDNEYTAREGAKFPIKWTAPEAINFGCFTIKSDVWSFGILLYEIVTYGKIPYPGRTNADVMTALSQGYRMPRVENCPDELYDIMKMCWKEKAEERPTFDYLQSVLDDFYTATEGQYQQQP
Method: as §1

[4] = target: T2, AURORA-A (Homo sapiens, UniProt O14965); assay: Kinome profiling AURORA-A; details: read-out: Inhibitory activity AURORA-A; for inhibition at 0.1 µM: 100 nM
T2 sequence (O14965 1-403): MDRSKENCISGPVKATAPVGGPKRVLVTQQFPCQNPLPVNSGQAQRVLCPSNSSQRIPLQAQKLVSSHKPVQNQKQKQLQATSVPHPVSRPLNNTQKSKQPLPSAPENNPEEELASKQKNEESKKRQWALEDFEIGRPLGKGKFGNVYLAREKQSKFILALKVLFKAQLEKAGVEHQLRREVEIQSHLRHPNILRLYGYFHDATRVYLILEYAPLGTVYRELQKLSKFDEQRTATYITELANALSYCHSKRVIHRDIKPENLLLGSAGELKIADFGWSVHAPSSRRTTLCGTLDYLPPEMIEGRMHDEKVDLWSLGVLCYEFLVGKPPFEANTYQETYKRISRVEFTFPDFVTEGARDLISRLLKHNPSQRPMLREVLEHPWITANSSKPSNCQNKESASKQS
Method: as §1

[5] = target: IGF1R (Homo sapiens, UniProt P08069); assay: Kinome profiling IGF1R; details: read-out: Inhibitory activity IGF1R; for inhibition at 0.1 µM: 100 nM
IGF1R, sequence (P08069 31-1367): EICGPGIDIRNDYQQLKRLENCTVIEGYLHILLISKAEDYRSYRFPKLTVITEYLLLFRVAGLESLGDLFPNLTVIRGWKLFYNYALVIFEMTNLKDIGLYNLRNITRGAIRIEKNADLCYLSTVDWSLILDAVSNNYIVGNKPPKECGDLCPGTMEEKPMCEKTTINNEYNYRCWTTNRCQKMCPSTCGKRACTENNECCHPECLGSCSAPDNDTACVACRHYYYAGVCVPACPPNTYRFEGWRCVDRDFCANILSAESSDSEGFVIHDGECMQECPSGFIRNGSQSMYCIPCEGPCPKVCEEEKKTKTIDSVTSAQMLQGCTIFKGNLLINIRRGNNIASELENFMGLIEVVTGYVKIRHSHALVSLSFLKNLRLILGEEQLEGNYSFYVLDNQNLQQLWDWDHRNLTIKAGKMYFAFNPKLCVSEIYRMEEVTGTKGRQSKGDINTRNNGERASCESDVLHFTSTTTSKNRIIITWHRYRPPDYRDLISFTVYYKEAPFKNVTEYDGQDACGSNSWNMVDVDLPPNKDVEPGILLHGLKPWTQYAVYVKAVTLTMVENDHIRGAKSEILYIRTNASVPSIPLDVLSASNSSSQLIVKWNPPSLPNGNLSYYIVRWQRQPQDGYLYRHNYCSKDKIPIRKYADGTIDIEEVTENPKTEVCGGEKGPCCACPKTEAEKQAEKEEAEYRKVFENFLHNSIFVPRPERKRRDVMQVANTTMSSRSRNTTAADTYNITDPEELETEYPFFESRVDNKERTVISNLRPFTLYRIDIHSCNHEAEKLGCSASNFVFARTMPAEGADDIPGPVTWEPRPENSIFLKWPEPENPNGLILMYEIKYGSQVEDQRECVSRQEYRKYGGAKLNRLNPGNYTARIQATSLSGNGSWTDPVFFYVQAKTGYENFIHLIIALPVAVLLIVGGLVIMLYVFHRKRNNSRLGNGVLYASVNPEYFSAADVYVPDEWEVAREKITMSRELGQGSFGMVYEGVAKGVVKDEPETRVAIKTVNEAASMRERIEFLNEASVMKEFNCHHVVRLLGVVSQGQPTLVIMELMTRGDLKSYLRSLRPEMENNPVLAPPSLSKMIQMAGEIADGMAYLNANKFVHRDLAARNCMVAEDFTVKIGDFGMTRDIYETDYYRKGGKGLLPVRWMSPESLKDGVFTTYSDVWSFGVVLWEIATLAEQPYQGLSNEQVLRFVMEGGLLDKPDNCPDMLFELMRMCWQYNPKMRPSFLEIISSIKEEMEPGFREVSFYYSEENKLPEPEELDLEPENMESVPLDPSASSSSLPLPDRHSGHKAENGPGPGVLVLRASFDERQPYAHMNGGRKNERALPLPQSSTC
Method: as §1

[6] = target: HCK (Homo sapiens, UniProt P08631); assay: Kinome profiling HCK; details: read-out: Inhibitory activity HCK; for inhibition at 0.1 µM: 100 nM
HCK, sequence (P08631 whole entry): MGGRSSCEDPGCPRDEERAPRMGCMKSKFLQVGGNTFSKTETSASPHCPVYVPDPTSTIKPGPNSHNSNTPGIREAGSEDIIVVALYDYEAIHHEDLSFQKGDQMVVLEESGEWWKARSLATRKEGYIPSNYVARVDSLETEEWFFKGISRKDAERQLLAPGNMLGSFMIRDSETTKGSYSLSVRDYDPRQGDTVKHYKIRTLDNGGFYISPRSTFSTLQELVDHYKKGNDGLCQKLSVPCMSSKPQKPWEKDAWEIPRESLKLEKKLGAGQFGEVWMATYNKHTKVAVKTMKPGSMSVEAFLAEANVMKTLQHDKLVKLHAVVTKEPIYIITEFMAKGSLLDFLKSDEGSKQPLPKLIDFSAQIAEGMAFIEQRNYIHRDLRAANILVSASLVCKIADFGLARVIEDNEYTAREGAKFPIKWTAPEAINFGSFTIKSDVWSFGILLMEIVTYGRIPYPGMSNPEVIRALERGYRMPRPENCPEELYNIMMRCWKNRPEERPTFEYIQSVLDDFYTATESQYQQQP
Method: as §1

[7] = target: TRKC (Homo sapiens, UniProt Q16288); assay: Kinome profiling TRKC; details: read-out: Inhibitory activity TRKC; for inhibition at 0.1 µM: 100 nM
TRKC, sequence (Q16288 32-839): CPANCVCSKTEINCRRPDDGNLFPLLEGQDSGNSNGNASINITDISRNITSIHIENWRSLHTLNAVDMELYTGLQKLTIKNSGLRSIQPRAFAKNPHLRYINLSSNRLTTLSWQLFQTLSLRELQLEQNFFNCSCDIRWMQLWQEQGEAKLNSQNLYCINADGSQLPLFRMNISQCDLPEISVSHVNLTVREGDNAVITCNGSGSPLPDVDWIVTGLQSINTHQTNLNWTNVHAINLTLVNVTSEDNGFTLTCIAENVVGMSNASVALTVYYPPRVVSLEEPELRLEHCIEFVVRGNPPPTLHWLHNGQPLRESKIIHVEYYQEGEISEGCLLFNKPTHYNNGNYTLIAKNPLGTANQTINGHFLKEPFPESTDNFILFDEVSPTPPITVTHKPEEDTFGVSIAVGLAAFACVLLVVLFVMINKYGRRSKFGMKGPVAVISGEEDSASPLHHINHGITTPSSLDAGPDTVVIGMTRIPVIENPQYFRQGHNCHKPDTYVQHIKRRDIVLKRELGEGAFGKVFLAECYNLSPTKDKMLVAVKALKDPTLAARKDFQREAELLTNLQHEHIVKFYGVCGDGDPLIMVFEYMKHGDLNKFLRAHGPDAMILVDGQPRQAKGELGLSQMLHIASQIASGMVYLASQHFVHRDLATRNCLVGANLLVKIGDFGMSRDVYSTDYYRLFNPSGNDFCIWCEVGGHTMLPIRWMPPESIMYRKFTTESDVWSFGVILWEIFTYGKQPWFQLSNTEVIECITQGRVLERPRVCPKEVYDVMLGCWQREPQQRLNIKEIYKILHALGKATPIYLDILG
Method: as §1

[8] = target: T3, EPHA3 (Homo sapiens, UniProt P29320); assay: Kinome profiling EPHA3; details: read-out: Inhibitory activity EPHA3; for inhibition at 0.1 µM: 100 nM
T3 sequence (P29320 21-983): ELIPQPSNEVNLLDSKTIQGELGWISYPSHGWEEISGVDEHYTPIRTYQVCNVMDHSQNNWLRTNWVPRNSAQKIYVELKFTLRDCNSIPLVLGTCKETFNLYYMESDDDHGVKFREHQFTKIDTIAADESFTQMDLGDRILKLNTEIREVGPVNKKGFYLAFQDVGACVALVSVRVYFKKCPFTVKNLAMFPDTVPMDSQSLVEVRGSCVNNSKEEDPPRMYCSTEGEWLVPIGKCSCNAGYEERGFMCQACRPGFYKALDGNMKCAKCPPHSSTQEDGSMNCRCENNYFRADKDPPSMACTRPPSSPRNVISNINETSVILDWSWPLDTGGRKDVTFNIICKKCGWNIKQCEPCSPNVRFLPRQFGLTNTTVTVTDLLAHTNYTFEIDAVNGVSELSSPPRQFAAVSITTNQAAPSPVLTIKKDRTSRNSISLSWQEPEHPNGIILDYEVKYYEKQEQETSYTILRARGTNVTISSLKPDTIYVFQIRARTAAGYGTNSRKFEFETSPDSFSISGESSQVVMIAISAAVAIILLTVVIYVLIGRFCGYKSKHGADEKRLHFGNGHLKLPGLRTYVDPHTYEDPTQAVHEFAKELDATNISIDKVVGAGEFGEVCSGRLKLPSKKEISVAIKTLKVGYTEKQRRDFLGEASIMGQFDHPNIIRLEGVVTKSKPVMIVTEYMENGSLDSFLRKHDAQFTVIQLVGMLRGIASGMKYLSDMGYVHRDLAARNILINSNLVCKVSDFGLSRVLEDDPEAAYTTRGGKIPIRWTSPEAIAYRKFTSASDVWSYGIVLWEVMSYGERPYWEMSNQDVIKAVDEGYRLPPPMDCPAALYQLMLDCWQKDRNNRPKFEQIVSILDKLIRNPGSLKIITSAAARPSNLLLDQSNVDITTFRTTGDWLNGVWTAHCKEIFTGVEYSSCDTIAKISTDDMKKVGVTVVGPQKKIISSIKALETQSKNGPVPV
Method: as §1

PAK1, sequence (Q13153 whole entry): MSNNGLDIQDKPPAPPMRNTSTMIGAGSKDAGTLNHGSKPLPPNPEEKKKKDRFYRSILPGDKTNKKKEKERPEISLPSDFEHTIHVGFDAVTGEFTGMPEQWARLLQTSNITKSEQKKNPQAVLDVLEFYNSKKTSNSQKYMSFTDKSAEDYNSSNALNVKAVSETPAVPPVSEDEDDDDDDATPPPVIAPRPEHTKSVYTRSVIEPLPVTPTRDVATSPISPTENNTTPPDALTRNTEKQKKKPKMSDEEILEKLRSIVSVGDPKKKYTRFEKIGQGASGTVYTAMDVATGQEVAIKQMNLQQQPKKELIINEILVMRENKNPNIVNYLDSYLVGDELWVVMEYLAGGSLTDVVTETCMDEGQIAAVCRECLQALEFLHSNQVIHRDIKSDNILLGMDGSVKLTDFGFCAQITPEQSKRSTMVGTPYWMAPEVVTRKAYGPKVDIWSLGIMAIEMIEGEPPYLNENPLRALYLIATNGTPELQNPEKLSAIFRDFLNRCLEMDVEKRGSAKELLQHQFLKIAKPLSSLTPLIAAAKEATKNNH

Row | SMILES | inhibition at 0.1 µM [1] | inhibition at 1 µM [1] | inhibition at 0.1 µM [2] | inhibition at 1 µM [2] | inhibition at 0.1 µM [3] | inhibition at 1 µM [3] | inhibition at 0.1 µM [4] | inhibition at 1 µM [4] | inhibition at 0.1 µM [5] | inhibition at 1 µM [5] | inhibition at 0.1 µM [6] | inhibition at 1 µM [6] | inhibition at 0.1 µM [7] | inhibition at 1 µM [7] | inhibition at 0.1 µM [8] | inhibition at 1 µM [8]
1 | COc1cc(-c2cc(-c3ccc(N4CCNCC4)cc3)cnc2C)cc(OC)c1OC [Compound 10, 1-(4-(6-methyl-5-(3,4,5-trimethoxyphenyl)pyridin-3-yl)phenyl)piperazine] | 2% | 3% | 4% | 5% | 3% | 29% | 2% | 3% | 0% | 0% | 3% | 15% | 4% | 4% | 2% | 3%
2 | COc1cc(-c2cc(-c3ccc(N4CCNCC4)cc3)cnc2N)cc(OC)c1OC [Compound 15, 5-(4-(piperazin-1-yl)phenyl)-3-(3,4,5-trimethoxyphenyl)pyridin-2-amine] | 0% | 6% | 1% | 1% | 41% | 84% | 2% | 3% | 2% | 4% | 41% | 81% | 3% | 3% | 8% | 31%
